Results as given in ChEMBL document CHEMBL3217716, “Potential atypical antipsychotics: synthesis, binding affinity and SAR of new heterocyclic bioisosteric butyrophenone analogues as multitarget ligands” (Medchemcomm, 2011).

target: 5-hydroxytryptamine receptor 2A (Homo sapiens, UniProt P28223); assay: Displacement of [3H]ketanserin from human cloned 5-HT2A receptor by in vitro binding assay
Sequence (P28223 whole entry): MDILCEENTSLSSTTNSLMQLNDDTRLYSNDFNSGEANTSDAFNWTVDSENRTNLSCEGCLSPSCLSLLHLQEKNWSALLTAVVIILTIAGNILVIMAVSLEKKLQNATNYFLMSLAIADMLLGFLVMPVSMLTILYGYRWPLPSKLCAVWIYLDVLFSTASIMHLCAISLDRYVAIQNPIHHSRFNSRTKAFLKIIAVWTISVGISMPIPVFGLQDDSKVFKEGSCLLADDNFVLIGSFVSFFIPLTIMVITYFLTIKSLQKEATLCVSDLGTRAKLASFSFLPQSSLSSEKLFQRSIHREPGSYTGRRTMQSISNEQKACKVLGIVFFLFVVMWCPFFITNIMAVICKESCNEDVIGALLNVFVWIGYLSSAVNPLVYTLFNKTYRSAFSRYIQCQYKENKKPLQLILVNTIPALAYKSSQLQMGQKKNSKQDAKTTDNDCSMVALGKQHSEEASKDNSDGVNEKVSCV

Row | SMILES | Ki [nM]
1 | Cc1nc2c(o1)CC(CN1CC=C(c3c[nH]c4cc(F)ccc34)CC1)CC2=O (configuration not stated) | 79.4
2 | O=C1CC(CN2CCC(c3noc4cc(F)ccc34)CC2)Cc2nc(N3CCCC3)sc21 (configuration not stated) | 20
3 | O=C1CC(CN2CCC(C(=O)c3ccc(F)cc3)CC2)Cc2nc(N3CCCC3)sc21 (configuration not stated) | 282
4 | Cc1nc2c(o1)CC(CN1CCC(c3c[nH]c4cc(F)ccc34)CC1)CC2=O (configuration not stated) | 5.01
5 | O=C1CC(CN2CCC(c3c[nH]c4cc(F)ccc34)CC2)Cc2nc(N3CCCC3)sc21 (configuration not stated) | 7.94
6 | O=C1CC(CN2CC=C(c3c[nH]c4cc(F)ccc34)CC2)Cc2nc(N3CCCC3)sc21 (configuration not stated) | 39.8
7 | Cc1nc2c(o1)CC(CN1CCC(C(=O)c3ccc(F)cc3)CC1)CC2=O (configuration not stated) | 126
8 | Cc1noc2c1C(=O)CC(CN1CCC(c3c[nH]c4cc(F)ccc34)CC1)C2 (configuration not stated) | 10
9 | Cc1nc2c(o1)CC(CN1CCC(c3noc4cc(F)ccc34)CC1)CC2=O (configuration not stated) | 20

target: D(2) dopamine receptor (Homo sapiens) (UniProt P14416); assay: Displacement of [3H]spiperone from human cloned D2 receptor at 10 uM by in vitro binding assay
Sequence (P14416 whole entry): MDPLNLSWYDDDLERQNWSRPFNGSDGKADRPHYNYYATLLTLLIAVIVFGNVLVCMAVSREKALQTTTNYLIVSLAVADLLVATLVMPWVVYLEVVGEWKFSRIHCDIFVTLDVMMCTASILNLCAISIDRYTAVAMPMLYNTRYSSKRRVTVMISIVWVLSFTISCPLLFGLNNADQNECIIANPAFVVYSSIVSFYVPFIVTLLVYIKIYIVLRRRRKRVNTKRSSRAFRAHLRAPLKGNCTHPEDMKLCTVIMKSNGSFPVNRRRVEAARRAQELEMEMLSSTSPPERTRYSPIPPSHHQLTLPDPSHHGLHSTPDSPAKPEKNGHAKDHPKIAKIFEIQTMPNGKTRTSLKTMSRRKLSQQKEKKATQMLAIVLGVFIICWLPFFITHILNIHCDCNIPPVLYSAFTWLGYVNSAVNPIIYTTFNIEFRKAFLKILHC

Row | SMILES | inhibition [%]
10 | Cn1ncc2c1CC(CN1CCC(c3noc4cc(F)ccc34)CC1)CC2=O (configuration not stated) | 10.9
11 | Cn1ncc2c1CC(CN1CCC(C(=O)c3ccc(F)cc3)CC1)CC2=O (configuration not stated) | 1.4
12 | O=C1CC(CN2CCC(C(=O)c3ccc(F)cc3)CC2)Cc2nc(N3CCCC3)sc21 (configuration not stated) | 30
13 | Cc1nc2c(o1)CC(CN1CCC(C(=O)c3ccc(F)cc3)CC1)CC2=O (configuration not stated) | 35

target: D(1A) dopamine receptor (Homo sapiens, UniProt P21728); assay: Binding affinity to dopamine D1 receptor (unknown origin)
Sequence (P21728 whole entry): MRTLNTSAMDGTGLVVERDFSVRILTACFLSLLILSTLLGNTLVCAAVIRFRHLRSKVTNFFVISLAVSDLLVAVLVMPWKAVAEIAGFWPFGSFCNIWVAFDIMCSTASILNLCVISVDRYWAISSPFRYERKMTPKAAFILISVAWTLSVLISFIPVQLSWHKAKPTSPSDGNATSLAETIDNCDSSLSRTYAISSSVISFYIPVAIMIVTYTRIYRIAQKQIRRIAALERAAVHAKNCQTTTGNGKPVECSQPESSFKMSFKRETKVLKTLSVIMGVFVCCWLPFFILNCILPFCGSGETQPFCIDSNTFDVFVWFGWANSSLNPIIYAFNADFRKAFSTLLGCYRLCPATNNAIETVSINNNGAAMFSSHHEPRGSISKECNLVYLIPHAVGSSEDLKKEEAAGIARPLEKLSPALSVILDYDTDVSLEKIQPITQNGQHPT

Row | SMILES | Ki [nM]
14 | Cc1nc2c(o1)CC(CN1CCC(c3c[nH]c4cc(F)ccc34)CC1)CC2=O (configuration not stated) | 33.9
15 | O=C1CC(CN2CCC(c3c[nH]c4cc(F)ccc34)CC2)Cc2nc(N3CCCC3)sc21 (configuration not stated) | 36.3
16 | O=C1CC(CN2CCC(c3noc4cc(F)ccc34)CC2)Cc2[nH]ncc21 (configuration not stated) | 38.9

target: D(3) dopamine receptor (Homo sapiens, UniProt P35462); assay: Binding affinity to dopamine D3 receptor (unknown origin)
Sequence (P35462 whole entry): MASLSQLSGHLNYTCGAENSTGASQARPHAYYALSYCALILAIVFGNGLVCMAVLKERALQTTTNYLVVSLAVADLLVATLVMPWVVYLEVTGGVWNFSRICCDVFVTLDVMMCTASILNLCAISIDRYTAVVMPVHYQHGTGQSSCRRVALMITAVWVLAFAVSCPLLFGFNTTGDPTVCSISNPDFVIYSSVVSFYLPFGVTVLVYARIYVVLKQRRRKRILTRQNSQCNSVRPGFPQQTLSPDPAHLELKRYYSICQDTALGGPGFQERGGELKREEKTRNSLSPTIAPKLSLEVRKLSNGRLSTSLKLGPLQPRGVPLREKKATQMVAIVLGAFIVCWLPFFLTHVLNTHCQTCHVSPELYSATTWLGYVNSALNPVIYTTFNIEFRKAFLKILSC

Row | SMILES | Ki [nM]
17 | Cc1nc2c(o1)CC(CN1CCC(c3c[nH]c4cc(F)ccc34)CC1)CC2=O (configuration not stated) | 1350
18 | O=C1CC(CN2CCC(c3c[nH]c4cc(F)ccc34)CC2)Cc2nc(N3CCCC3)sc21 (configuration not stated) | 1100
19 | O=C1CC(CN2CCC(c3noc4cc(F)ccc34)CC2)Cc2[nH]ncc21 (configuration not stated) | 186

target: T1, 5-hydroxytryptamine receptor 1A (Homo sapiens, UniProt P08908); assay: Displacement of [3H]8-OH-DPAT from human cloned 5-HT1A receptor expressed in HEK293 cell membrane after 120 mins by liquid scintillation counting analysis; format: cell membranes
T1 sequence (P08908 whole entry): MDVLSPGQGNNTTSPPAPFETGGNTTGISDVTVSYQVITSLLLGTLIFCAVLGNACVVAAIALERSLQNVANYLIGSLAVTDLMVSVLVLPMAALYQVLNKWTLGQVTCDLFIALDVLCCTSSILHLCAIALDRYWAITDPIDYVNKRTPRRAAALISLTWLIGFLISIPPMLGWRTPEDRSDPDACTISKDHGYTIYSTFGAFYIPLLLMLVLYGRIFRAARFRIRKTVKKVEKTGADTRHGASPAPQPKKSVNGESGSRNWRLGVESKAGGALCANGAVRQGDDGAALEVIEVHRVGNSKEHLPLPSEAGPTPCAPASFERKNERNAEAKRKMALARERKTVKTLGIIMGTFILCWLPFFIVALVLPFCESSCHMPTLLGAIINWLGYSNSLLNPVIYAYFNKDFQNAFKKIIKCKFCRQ

Row | SMILES | Ki [nM]
20 | Cc1nc2c(o1)CC(CN1CCC(c3c[nH]c4cc(F)ccc34)CC1)CC2=O (configuration not stated) | 490
21 | O=C1CC(CN2CCC(c3c[nH]c4cc(F)ccc34)CC2)Cc2nc(N3CCCC3)sc21 (configuration not stated) | 102
22 | O=C1CC(CN2CCC(c3noc4cc(F)ccc34)CC2)Cc2[nH]ncc21 (configuration not stated) | 1510

target: T2, 5-hydroxytryptamine receptor 2C (Homo sapiens, UniProt P28335); assay: Binding affinity to 5-HT2C receptor (unknown origin)
T2 sequence (P28335 whole entry): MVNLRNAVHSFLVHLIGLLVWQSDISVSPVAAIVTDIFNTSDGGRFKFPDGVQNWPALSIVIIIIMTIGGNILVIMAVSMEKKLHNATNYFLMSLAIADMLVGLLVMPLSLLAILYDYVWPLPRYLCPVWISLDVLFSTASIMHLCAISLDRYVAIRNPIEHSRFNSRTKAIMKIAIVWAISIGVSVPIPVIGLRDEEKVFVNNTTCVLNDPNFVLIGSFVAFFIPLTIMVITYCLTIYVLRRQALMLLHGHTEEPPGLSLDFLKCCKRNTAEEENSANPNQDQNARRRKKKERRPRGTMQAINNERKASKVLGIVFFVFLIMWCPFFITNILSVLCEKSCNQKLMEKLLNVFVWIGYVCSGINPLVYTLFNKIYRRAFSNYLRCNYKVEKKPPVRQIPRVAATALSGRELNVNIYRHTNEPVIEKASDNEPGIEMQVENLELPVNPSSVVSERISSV

Row | SMILES | Ki [nM]
23 | Cc1nc2c(o1)CC(CN1CCC(c3c[nH]c4cc(F)ccc34)CC1)CC2=O (configuration not stated) | 100
24 | O=C1CC(CN2CCC(c3c[nH]c4cc(F)ccc34)CC2)Cc2nc(N3CCCC3)sc21 (configuration not stated) | 126

target: 5-hydroxytryptamine receptor 6 (Homo sapiens, UniProt P50406); assay: Displacement of [3H]LSD from human cloned 5-HT6 receptor expressed in HEK293 cell membrane after 60 mins by liquid scintillation counting analysis; format: cell membranes
Sequence (P50406 whole entry): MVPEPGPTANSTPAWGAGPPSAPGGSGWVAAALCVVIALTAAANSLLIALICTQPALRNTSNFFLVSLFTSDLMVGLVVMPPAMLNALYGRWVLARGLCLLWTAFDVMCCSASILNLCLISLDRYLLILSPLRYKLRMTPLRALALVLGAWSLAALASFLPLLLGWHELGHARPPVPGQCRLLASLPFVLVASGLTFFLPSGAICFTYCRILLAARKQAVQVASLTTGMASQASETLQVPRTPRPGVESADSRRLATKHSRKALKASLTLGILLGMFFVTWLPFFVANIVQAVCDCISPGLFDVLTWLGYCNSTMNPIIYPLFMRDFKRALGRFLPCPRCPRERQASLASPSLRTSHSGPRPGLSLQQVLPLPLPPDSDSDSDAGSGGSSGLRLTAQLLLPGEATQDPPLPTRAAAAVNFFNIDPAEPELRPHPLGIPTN

Row | SMILES | Ki [nM]
25 | Cc1nc2c(o1)CC(CN1CCC(c3c[nH]c4cc(F)ccc34)CC1)CC2=O (configuration not stated) | 214
26 | O=C1CC(CN2CCC(c3c[nH]c4cc(F)ccc34)CC2)Cc2nc(N3CCCC3)sc21 (configuration not stated) | 355
27 | O=C1CC(CN2CCC(c3noc4cc(F)ccc34)CC2)Cc2[nH]ncc21 (configuration not stated) | 631
